Measurements: patent US20230190937A1, “IRON COMPLEXES OF ESTERIFIED DERIVATIVES OF NATURAL PRODUCTS, AND METHODS OF USE” (CORNELL UNIVERSITY, priority 2021, published 2023)

Method: Preparation of curcumin in coconut oil. To a round bottom flask with a magnetic stir bar, 20 mg of curcumin and 25 mL (23000 mg) of coconut oil were added. The flask was placed in a water bath at 40° C. and the mixture was stirred for 30 min. The sample was then cooled to room temperature and centrifuged to remove non-dissolved residue of curcumin.
(§1) The sample was then cooled to room temperature and used for the next studies.
as §1

COc1cc(/C=C/C(=O)CC(=O)/C=C/c2ccc(O)c(OC)c2)ccc1O [curcumin]
solubility (concentration) in coconut oil: around 0.08 wt %
